Experimental data as given in ChEMBL document CHEMBL6182910, “Design, Synthesis, and Biological Evaluation of 4-(Difluoromethyl)-1H-imidazole-5-carboxylic Acids/4-(3-Cyanophenoxy)pyrimidine-5-carboxylic Acids as P2Y1 Receptor Antagonists for Ischemic Stroke Treatment” (J Med Chem, 2025).
pIC50: −log10 of the molar value. The source made the active and inactive calls. No cut-off for these calls is given here.

Key:
[1] = AUC in plasma of male Sprague-Dawley rat at 10 mg/kg, iv measured for 0.083 to 24 hrs by LC-MS/MS analysis; assay type: ADME, organism-based; conditions: time 0.083-24 hrs
[2] = tested on: Rattus norvegicus; assay: Neuroprotective activity in MCAO-induced brain damage Sprague-Dawley rat model assessed as transparent cytoplasm at 2.5 to 10 mg/kg, iv administered immediately after arterial occlusion measured after 24 hrs by H and E staining based analysis; assay type: functional, organism-based; conditions: dose 2.5-10 mg/kg
[3] = Ratio of AUC in brain to plasma of male Kunming mouse at 10 mg/kg, iv measured for 0.083 to 24 hrs by LC-MS/MS analysis; assay type: ADME, organism-based; conditions: brain and plasma, time 0.083-24 hrs, read-out: Ratio AUC
[4] = Antioxidant activity assessed as DPPH radical scavenging activity at 60 uM incubated for 30 mins under dark condition by absorbance based method; assay type: functional
[5] = AUC in brain of male Sprague-Dawley rat at 10 mg/kg, iv measured for 0.083 to 24 hrs by LC-MS/MS analysis; assay type: ADME, organism-based; conditions: in vivo, time 0.083-24 hrs
[6] = AUC (0 to infinity) male Sprague-Dawley rat at 10 mg/kg, iv measured up to 24 hrs by LC-MS/MS analysis; assay type: ADME, organism-based; conditions: in vivo
[7] = Clearance male Sprague-Dawley rat at 10 mg/kg, po measured up to 24 hrs by LC-MS/MS analysis; assay type: ADME, organism-based; conditions: in vivo
[8] = Protein binding in rat brain homogenate at 10 uM incubated for 12 hrs by equilibrium dialysis method; assay type: ADME, tissue-based; conditions: read-out: PB (converted)
[9] = Cmax male Sprague-Dawley rat at 10 mg/kg, iv measured up to 24 hrs by LC-MS/MS analysis; assay type: ADME, organism-based; conditions: in vivo
[10] = molecular target: CYP2C19 (Homo sapiens, UniProt P33261); assay: Inhibition of CYP2C19 in human liver microsomes using S-mephenytoin as substrate at 10 uM preincubated for 5 min followed by NADPH addition measured after 120 mins by LC-MS/MS analysis relative to control; assay type: ADME, Microsome; conditions: probe S-mephenytoin, time 125 min
[11] = tested on: Rattus norvegicus; assay: Anti-platelet aggregation in Sprague-Dawley rat assessed as reduction in ADP-induced bleeding loss at 10 mg/kg, po measured for 15 mins in presence of 10 uM ADP; assay type: functional, organism-based
[12] = tested on: Rattus norvegicus; assay: Neuroprotective activity in MCAO-induced brain damage Sprague-Dawley rat model assessed as plasma GSH-px level at 2.5 to 10 mg/kg, iv administered immediately after arterial occlusion measured after 24 hrs; assay type: functional; conditions: dose 2.5-10 mg/kg
[13] = Tmax male Sprague-Dawley rat at 10 mg/kg, po measured up to 24 hrs by LC-MS/MS analysis; assay type: ADME, organism-based; conditions: in vivo
[14] = Protein binding in rat plasma at 10 uM incubated for 12 hrs by equilibrium dialysis method; assay type: ADME, cell-free; conditions: read-out: PPB (converted)
[15] = AUC in plasma of male Kunming mouse at 10 mg/kg, iv measured for 0.083 to 24 hrs by LC-MS/MS analysis; assay type: ADME, organism-based; conditions: time 0.083-24 hrs
[16] = tested on: Rattus norvegicus; assay: Neuroprotective activity in MCAO-induced brain damage Sprague-Dawley rat model assessed as brain infarction size at 5 mg/kg, iv administered immediately after arterial occlusion measured after 24 hrs by TTC staining based analysis (reference value: 43.1 %); assay type: functional
[17] = Cmax male Sprague-Dawley rat at 10 mg/kg, po measured up to 24 hrs by LC-MS/MS analysis; assay type: ADME, organism-based; conditions: in vivo
[18] = Apparent volume of distribution male Sprague-Dawley rat at 10 mg/kg, iv measured up to 24 hrs by LC-MS/MS analysis; assay type: ADME, organism-based; conditions: in vivo, read-out: Vz
[19] = organism: Oryctolagus cuniculus; assay: Antagonist activity at P2Y12 receptor in platelet-rich plasma of male Japanese white rabbit assessed as inhibition of VASP phosphorylation at Ser239 at 30 uM pretreated for 10 mins followed by PGE1/ADP addition measured after 10 mins by ELISA relative to control; assay type: cell-free; conditions: time 20.0 min
[20] = Clearance male Sprague-Dawley rat at 10 mg/kg, iv measured up to 24 hrs by LC-MS/MS analysis; assay type: ADME, organism-based; conditions: in vivo
[21] = molecular target: T1, CYP1A2 (Homo sapiens, UniProt P05177); assay: Inhibition of CYP1A2 in human liver microsomes using phenacetin as substrate at 10 uM preincubated for 5 min followed by NADPH addition measured after 120 mins by LC-MS/MS analysis relative to control; assay type: ADME, Microsome; conditions: probe phenacetin, time 125 min
T1 sequence (P05177 whole entry): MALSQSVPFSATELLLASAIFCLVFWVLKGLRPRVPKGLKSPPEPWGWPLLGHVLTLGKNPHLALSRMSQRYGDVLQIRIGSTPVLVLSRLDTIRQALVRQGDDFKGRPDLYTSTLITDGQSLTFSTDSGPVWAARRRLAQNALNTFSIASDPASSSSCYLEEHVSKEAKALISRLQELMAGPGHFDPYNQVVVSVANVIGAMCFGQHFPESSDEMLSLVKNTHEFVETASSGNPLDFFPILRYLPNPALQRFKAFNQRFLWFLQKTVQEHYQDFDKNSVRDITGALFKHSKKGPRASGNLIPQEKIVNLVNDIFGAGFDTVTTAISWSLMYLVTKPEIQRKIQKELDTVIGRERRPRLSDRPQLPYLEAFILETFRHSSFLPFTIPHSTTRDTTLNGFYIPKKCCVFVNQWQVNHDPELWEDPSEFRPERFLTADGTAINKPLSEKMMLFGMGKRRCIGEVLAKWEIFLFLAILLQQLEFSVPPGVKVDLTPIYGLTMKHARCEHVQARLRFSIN

[22] = Antagonist activity at P2Y1 receptor in platelet-rich plasma of male Japanese white rabbit assessed as inhibition of ADP-induced cytosolic Ca2+ level pretreated for 5 mins followed by ADP addition by FLUO-4 AM dye based analysis; assay type: cell-free; conditions: Oryctolagus cuniculus
[23] = Half life male Sprague-Dawley rat at 10 mg/kg, iv measured up to 24 hrs by LC-MS/MS analysis; assay type: ADME, organism-based; conditions: in vivo
[24] = molecular target: CYP2C9 (Homo sapiens, UniProt P11712); assay: Inhibition of CYP2C9 in human liver microsomes using tolbutamide as substrate at 10 uM preincubated for 5 min followed by NADPH addition measured after 120 mins by LC-MS/MS analysis relative to control; assay type: ADME, Microsome; conditions: probe tolbutamide, time 125 min
[25] = Oral bioavailability male Sprague-Dawley rat at 10 mg/kg measured up to 24 hrs by LC-MS/MS analysis; assay type: ADME, organism-based; conditions: in vivo
[26] = Metabolic stability in rat liver microsomes assessed as parent compound remaining at 1 uM measured after 3 hrs in presence of NADPH by LC-MS/MS analysis; assay type: ADME, Microsome; conditions: read-out: Stability
[27] = tested on: Rattus norvegicus; assay: Neuroprotective activity in MCAO-induced brain damage Sprague-Dawley rat model assessed as improvement in motor co-ordination administered intravenously immediately after arterial occlusion measured after 24 hrs by Longa's method; assay type: functional, organism-based; conditions: dose 2.5-10 mg/kg, route iv
[28] = tested on: Rattus norvegicus; assay: Neuroprotective activity in MCAO-induced brain damage Sprague-Dawley rat model assessed as clear nucleoli with uniform staining at 2.5 to 10 mg/kg, iv administered immediately after arterial occlusion measured after 24 hrs by H and E staining based analysis; assay type: functional, organism-based; conditions: dose 2.5-10 mg/kg

CYP2C19, sequence (P33261 whole entry): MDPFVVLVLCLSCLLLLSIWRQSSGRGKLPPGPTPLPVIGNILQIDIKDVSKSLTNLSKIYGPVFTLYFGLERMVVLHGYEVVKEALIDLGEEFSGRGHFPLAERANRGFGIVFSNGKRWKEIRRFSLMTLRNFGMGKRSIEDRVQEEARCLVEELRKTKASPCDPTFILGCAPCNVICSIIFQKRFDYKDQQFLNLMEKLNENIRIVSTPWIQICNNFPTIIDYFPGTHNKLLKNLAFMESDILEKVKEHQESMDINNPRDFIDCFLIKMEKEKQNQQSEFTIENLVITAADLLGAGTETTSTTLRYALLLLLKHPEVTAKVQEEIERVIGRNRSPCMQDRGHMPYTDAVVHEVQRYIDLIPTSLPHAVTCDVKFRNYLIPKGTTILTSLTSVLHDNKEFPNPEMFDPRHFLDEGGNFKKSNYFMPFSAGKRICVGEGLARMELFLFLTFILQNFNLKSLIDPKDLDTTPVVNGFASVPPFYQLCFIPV
CYP2C9, sequence (P11712 whole entry): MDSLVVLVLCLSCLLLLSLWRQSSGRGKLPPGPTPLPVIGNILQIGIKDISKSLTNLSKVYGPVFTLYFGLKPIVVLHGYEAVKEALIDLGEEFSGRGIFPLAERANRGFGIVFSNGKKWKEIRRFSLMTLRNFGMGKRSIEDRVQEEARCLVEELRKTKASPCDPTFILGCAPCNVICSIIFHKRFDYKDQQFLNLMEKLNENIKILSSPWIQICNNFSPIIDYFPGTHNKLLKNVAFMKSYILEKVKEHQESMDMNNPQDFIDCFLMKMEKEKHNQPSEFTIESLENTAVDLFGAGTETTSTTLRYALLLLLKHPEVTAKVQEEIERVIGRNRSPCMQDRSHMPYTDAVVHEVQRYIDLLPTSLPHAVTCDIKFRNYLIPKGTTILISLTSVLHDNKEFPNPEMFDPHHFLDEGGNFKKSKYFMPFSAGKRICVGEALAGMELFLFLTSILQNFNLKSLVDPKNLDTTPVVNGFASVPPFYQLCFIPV

## N#Cc1cccc(-c2nc(C(F)F)c(C(=O)O)n2OCc2csc(N)n2)c1
[1]
  AUC: 14000 ng·h/mL
[2]
  Activity: Active
[3]
  Kp: 1.08
[4]
  Activity: 4.29%
[5]
  AUC: 1.02 µg·h/g
[6]
  AUC(0-inf): 11400 ng·h/mL
[7]
  CL/F: 4630 mL/min/kg
[8]
  fraction unbound at 12 h, 10 µM: 0.092
[9]
  Cmax: 44300 ng/mL
[10]
  inhibition at 2 h, 10 µM: 27.4%
[11]
  Activity: Active; No Bleeding Loss Was Observed
[12]
  Activity: 645.4 U/ml
[13]; male, Sprague-Dawley, read-out: Tmax
  Tmax: 10 min
[14]
  fraction unbound at 12 h, 10 µM: 0.074
[15]
  AUC: 650 ng·h/mL
[16]
  Activity: 23.3%
[17]; male, Sprague-Dawley, read-out: Cmax
  Cmax: 480 ng/mL
[18]
  Vd: 0.338 L/kg
[19]
  inhibition: 24.5%
[20]
  clearance: 14.6 mL/min/kg
[21]
  inhibition at 2 h, 10 µM: 9%
[22]
  pIC50: 6.31
[23]
  half-life: 14.9 min
[24]
  inhibition at 2 h, 10 µM: 9.7%
[25]
  bioavailability: 0.31%
[26]
  remaining at 3 h, 1 µM: 99.4%
[27]
  Activity: Dose-dependent-effect; Outperformed Edaravone And Hnw001 At 10 Mg/Kg
[28]
  Activity: Active

## N#Cc1cccc(Oc2nc(-c3cccc(C#N)c3)ncc2C(=O)O)c1
[1]
  AUC: 75200 ng·h/mL
[2]
  Activity: Active
[3]
  Kp: 2.39
[4]
  Activity: 6.15%
[5]
  AUC: 18.55 µg·h/g
[6]
  AUC(0-inf): 23800 ng·h/mL
[7]
  CL/F: 169 mL/min/kg
[8]
  fraction unbound at 12 h, 10 µM: 0.046
[9]
  Cmax: 48200 ng/mL
[10]
  inhibition at 2 h, 10 µM: 9.7%
[11]
  Activity: Moderate_effect; Moderate Bleeding Loss Was Observed; Potency Was More Than Bptu And Ticagrelor
[12]
  Activity: 591.5 U/ml
[13]; po, 10 mg/kg, 24 h
  Tmax: 6.12 min
[14]
  fraction unbound at 12 h, 10 µM: 0.046
[15]
  AUC: 5360 ng·h/mL
[16]
  Activity: 21.3%
[17]; po, 10 mg/kg, 24 h
  Cmax: 610 ng/mL
[18]
  Vd: 0.404 L/kg
[19]
  inhibition: 35.9%
[20]
  clearance: 7 mL/min/kg
[21]
  inhibition at 2 h, 10 µM: 6.5%
[22]
  pIC50: 6.30
[23]
  half-life: 38.5 min
[24]
  inhibition at 2 h, 10 µM: 26.3%
[25]
  bioavailability: 4.1%
[26]
  remaining at 3 h, 1 µM: 71.5%
[27]
  Activity: Dose-dependent-effect; Outperformed Edaravone And Hnw001 At 10 Mg/Kg
[28]
  Activity: Active
